Results on 3 molecules are retold here after patent US20110014178A1 (priority 2002, published 2011).

Data set [1] concerns the target phospholipase C (alpha toxin produced by Clostridium perfringens) (Clostridium perfringens, UniProt P0C216). The settings on record: cited from earlier work.
Data set [2] has as its system C. perfringens. Format: in vivo, broiler chicks. The settings on record: 50 g/t in feed, challenged.
For data set [3], the system named is Clostridium perfringens. Format: cell-based. The settings on record: FIC plates.

On to `O=C(O)CN(CCN(CC(=O)O)CC(=O)O)CC(=O)O` [EDTA], for which, in data set [1], the “effect on enzymatic activity of phospholipase C” value is “direct inhibitory effect”.
Consider bacitracin methylene disalicylate [BMD], for which, in data set [2], the “Feed Consum.” value is listed as 14.000, the “Feed Conv.” value is reported as 1.659, the “NE Mort.” value is 2 and the “Wt. Gain D 5 to D 14” value was found to be 0.252 kg. In addition, in data set [2], the “Wt. Gain D 5 to D 27” value amounted to 0.946 kg and the “Wt. Gain D 14 to D 27” value is 0.694 kg. In addition, in data set [2] (0 normal, 3 most severe), the “Lesion Score (0 to 3) Day 22” value turned out to be 0.0 and the “Lesion Score (0 to 3) Day 27” value is reported as 0.3.
For lysozyme, the “effect on enzymatic activity of phospholipase C” value in data set [1] is reported as “direct inhibitory effect”. Further, the lysozyme effective alone entry in data set [3] (100 times dilution of overnight culture, no nisin) is listed as “approximately 120 ppm”. Further, the “lysozyme required to achieve a bactericidal effect” value in data set [3] (in combination with nisin 3 ppm) is recorded as 8 ppm.
